Results on 16 molecules are retold here after PMC9820559, “Investigation of the Fuzzy Complex between RSV Nucleoprotein and Phosphoprotein to Optimize an Inhibition Assay by Fluorescence Polarization” (International Journal of Molecular Sciences, 2022).

SMILES strings stand for the structures. Peptide text beside a SMILES is read from it. * marks the point of attachment. FITC = O=C1OC2(c3ccc(O)cc3Oc3cc(O)ccc32)c2ccc(NC(=S)*)cc21; X1 = Cc1cc(C)n2c1C=C1C=CC(CCC(=O)*)=[N+]1[B-]2(C#N)C#N Some results are limits rather than exact numbers.

The target of this experiment is T1, RSV N-RNA complex (Human respiratory syncytial virus A, UniProt P03418).
T1 construct: Full-length N was produced by co-expression with the C-terminal domain of RSV P protein in E. coli BL21(DE3); made in house; host or cells: E. coli BL21(DE3), co-transformed with pET-N and pGEX-P(161–241)
The experiment in a line: biochemical. In kind it is binding. To be noted: for FP values compared to fluorescein at the same N-RNA concentrations: 200 nM probe, also bound to N-RNA. The procedure:
We carried out FP measurements using the fluorescent F11 peptide and N-RNA complex. […] No salt was added to promote high affinity.
We first measured binding of Fn peptides (200 nM) to N-RNA in Tris buffer by FP (Figure 5A,B). […] We fitted the data with ΔFPmax and Kd as parameters.
We therefore measured fluorescein FP in the presence of N-RNA. […] To test if fluorescein binds to the P-binding site on the N-RNA, we carried out a competition experiment with M76 (Figure 6C).
We first performed FP measurements in salt-free Tris pH 8 buffer (Figure 8A). We measured binding curves using 200 nM of fluorescent peptides.
Fluorescence polarization measurements were carried out on a Paradigm Detection Platform (Beckman Coulter, Brea, CA, USA) operating with a microplate reader, a fluorescein detection cartridge (excitation range 485/20 nm, emission range 535/25 nm for both parallel and perpendicular components) and the SpectraMax Pro 6.1 software (Molecular Devices, San Jose, CA, USA). Samples were placed in polystyrene black flat bottom 96-well microplates (Cellstar, Greiner bio-one, Frickenhausen, Germany) with 20 µL final volume in each well. If not stated otherwise, the final concentration of fluorescent ligands was 200 nM. The buffer was either 20 mM MES pH 6.5, salt-free or with 250 mM NaCl, or 20 mM Tris pH 8.0 salt-free or with 100 mM NaCl, supplemented with 0.01% Brij-35. Mixing was done using the corresponding plate reader option. The temperature was set to 20 °C. Data were recorded in top reading mode. Measurements were done in triplicate and after an incubation time of 30 min, if not indicated otherwise. Fluorescence polarization (FP) in mFP units was determined from the parallel (I∥) and perpendicular (I⊥) components of the emitted light according to Equation (4). A grating factor G of 1.2 was determined using 1 nM fluorescein in 1 mM NaOH and assuming a theoretical FP of 27 mFP [48]. Background signal was measured from wells containing only buffer, and the mean value was subtracted from each I∥ and I⊥ component. (4) FP (mP)=1000×(I∥−G∗I⊥)/(I∥+G×I⊥)
We assumed that the measured fluorescence polarization FP is a linear combination of the FP of the fluorescent probe in the absence of N protein (FPmin) and the FP of N-bound fluorescent probe (FPmax), weighted by the molar fraction. The molar fraction x = [P]bound/[P]0 can then be expressed as a ratio of FP differences (Equation (8)). (8) x=(FP−FPmin)/(FPmax−FPmin)=∆FP/∆FPmax
To determine the Kd value of a complex between a fluorescent probe and N protein, a series of samples with constant probe concentration and varying N concentration was measured. FP binding curves were fitted with a single binding site model and a 1:1 stoichiometry.

Where [1] appears, read: Kd, BCNn peptides 200 nM, Tris pH 8.0, no salt, single site model.
[2] abbreviates: Kd, Fn peptides 200 nM, Tris pH 8.0 without salt, single site binding model.
[3] abbreviates: apparent Kd, fluorescent molecules 200 nM, Tris pH 8 without salt, calculated assuming FPmax = 500 mFP.
Setting [4] is: Kd, Fn peptides 200 nM, Tris pH 8.0 without salt, single site model combined with linear contribution (*).

As to `Cc1cc(C)n2c1C=C1C=CC(CCC(=O)N[C@@H](CC(=O)O)C(=O)N[C@@H](CC(C)C)C(=O)N[C@@H](CCC(=O)O)C(=O)N[C@@H](CC(C)C)C(=O)N[C@@H](CCC(=O)O)C(=O)N[C@@H](CC(=O)O)C(=O)N[C@@H](Cc3ccccc3)C(=O)O)=[N+]1[B-]2(C#N)C#N` [BCN7E, BCN-DLELEDF-OH] (X1-DLELEDF-OH), the Kd under setting [1] is 2200 ± 200 nM.

With `CC(C)C[C@H](NC(=O)[C@H](CCC(=O)O)NC(=O)[C@H](CC(C)C)NC(=O)[C@H](CC(=O)O)NC(=S)Nc1ccc2c(c1)C(=O)OC21c2ccc(O)cc2Oc2cc(O)ccc21)C(=O)N[C@@H](CCC(=O)O)C(=O)N[C@@H](CC(=O)O)C(=O)N[C@@H](Cc1ccccc1)C(=O)O` [F7E, ϕ-DLE237LEDF-OH] ({FITC}-DLELEDF-OH), under setting [2], the Kd was found to be 2500 ± 300 nM.

In the case of `COC(=O)c1ccccc1-c1c2ccc(=O)cc-2oc2cc(O)ccc12` [Fluorescein methyl ester 2, fluorescein methyl ester], the Kd under setting [3] is 200000 ± 8000 nM.

As to `Cc1cc(C)n2c1C=C1C=CC(CCC(=O)O)=[N+]1[B-]2(C#N)C#N` [dicyano BODIPY FL 5, 3-(5,5-dicyano-7,9-dimethyl-5H-4λ^4,5λ^4-dipyrrolo[1,2-c:2′,1′-f][1,3,2]diazaborinin-3-yl)propanoic acid], the “FP values compared to fluorescein at the same N-RNA concentrations” value (Tris pH 8 without salt) is reported as “markedly lower”.

On to `CC(C)C[C@H](NC(=O)[C@H](CCC(=O)O)NC(=O)[C@H](CC(C)C)NC(=O)[C@H](CC(=O)O)NC(=O)[C@H](CC(N)=O)NC(=O)[C@H](CC(=O)O)NC(=O)[C@H](CO)NC(=O)[C@H](CC(=O)O)NC(=S)Nc1ccc2c(c1)C(=O)OC21c2ccc(O)cc2Oc2cc(O)ccc21)C(=O)N[C@@H](CCC(=O)O)C(=O)N[C@@H](CC(=O)O)C(=O)N[C@@H](Cc1ccccc1)C(=O)O` [F11SE, ϕ-DS232DNDLE237LEDF-OH] ({FITC}-DSDNDLELEDF-OH), for which the Kd was less than 1000 nM under setting [2] and 620 nM under setting [4].

`O=C(O)CC[C@H](NC(=S)Nc1ccc2c(c1)C(=O)OC21c2ccc(O)cc2Oc2cc(O)ccc21)C(=O)N[C@@H](CC(=O)O)C(=O)N[C@@H](Cc1ccccc1)C(=O)O` [F3, ϕ-EDF-OH] ({FITC}-Glu-Asp-Phe-OH): the Kd under setting [2] was found to be 62000 ± 19000 nM.

On to `Cc1cc(C)n2c1C=C1C=CC(CCC(=O)N[C@@H](CCC(=O)O)C(=O)N[C@@H](CC(C)C)C(=O)N[C@@H](CCC(=O)O)C(=O)N[C@@H](CC(=O)O)C(=O)N[C@@H](Cc3ccccc3)C(=O)O)=[N+]1[B-]2(C#N)C#N` [BCN5E, BCN-ELEDF-OH] (X1-ELEDF-OH), for which the Kd under setting [1] amounted to 9800 ± 900 nM.

Take `Cc1cc(C)n2c1C=C1C=CC(CCC(=O)N[C@@H](CC(=O)O)C(=O)N[C@@H](CO)C(=O)N[C@@H](CC(=O)O)C(=O)N[C@@H](CC(N)=O)C(=O)N[C@@H](CC(=O)O)C(=O)N[C@@H](CC(C)C)C(=O)N[C@@H](CCC(=O)O)C(=O)N[C@@H](CC(C)C)C(=O)N[C@@H](CCC(=O)O)C(=O)N[C@@H](CC(=O)O)C(=O)N[C@@H](Cc3ccccc3)C(=O)O)=[N+]1[B-]2(C#N)C#N` [BCN11SE] (X1-DSDNDLELEDF-OH): the Kd under setting [1] was found to be 800 nM.

For `Cc1cc(C)n2c1C=C1C=CC(CCC(=O)N[C@@H](CC(C)C)C(=O)N[C@@H](CCC(=O)O)C(=O)N[C@@H](CC(C)C)C(=O)N[C@@H](CCC(=O)O)C(=O)N[C@@H](CC(=O)O)C(=O)N[C@@H](Cc3ccccc3)C(=O)O)=[N+]1[B-]2(C#N)C#N` [BCN6E, BCN-LELEDF-OH] (X1-LELEDF-OH), the Kd under setting [1] turned out to be 2300 ± 200 nM and the Kd (Kd, BCNn peptides 200 nM, Tris pH 8.0, with salt (100 mM NaCl), (*) saturation not reached) is 12600 ± 1600 nM.

With `CC(C)C[C@H](NC(=O)[C@H](CCC(=O)O)NC(=O)[C@H](CC(C)C)NC(=O)[C@H](CC(=O)O)NC(=O)[C@H](CC(N)=O)NC(=O)[C@H](CC(=O)O)NC(=S)Nc1ccc2c(c1)C(=O)OC21c2ccc(O)cc2Oc2cc(O)ccc21)C(=O)N[C@@H](CCC(=O)O)C(=O)N[C@@H](CC(=O)O)C(=O)N[C@@H](Cc1ccccc1)C(=O)O` [F9E, ϕ-DNDLE237LEDF-OH] ({FITC}-DNDLELEDF-OH), the Kd under setting [2] was determined as 2200 ± 300 nM.

For `O=C(O)c1ccccc1-c1c2ccc(=O)cc-2oc2cc(O)ccc12` [Fluorescein 1, Fluorescein], the Kd under setting [3] is 91000 ± 5000 nM.

Turning to `CC(C)C[C@H](NC(=S)Nc1ccc2c(c1)C(=O)OC21c2ccc(O)cc2Oc2cc(O)ccc21)C(=O)N[C@@H](CCC(=O)O)C(=O)N[C@@H](CC(=O)O)C(=O)N[C@@H](Cc1ccccc1)C(=O)O` [F4, ϕ-LEDF-OH] ({FITC}-LEDF-OH), the Kd under setting [2] came out at 35000 ± 4000 nM.

On to `Cc1cc(C)n2c1C=C1C=CC(CCC(=O)N[C@@H](CCC(=O)O)C(=O)N[C@@H](CC(=O)O)C(=O)N[C@@H](CC(N)=O)C(=O)N[C@@H](CC(=O)O)C(=O)N[C@@H](CC(C)C)C(=O)N[C@@H](CCC(=O)O)C(=O)N[C@@H](CC(C)C)C(=O)N[C@@H](CCC(=O)O)C(=O)N[C@@H](CC(=O)O)C(=O)N[C@@H](Cc3ccccc3)C(=O)O)=[N+]1[B-]2(C#N)C#N` [BCN10EE] (X1-EDNDLELEDF-OH), for which the Kd under setting [1] amounted to 160 ± 30 nM.

As to `CC(C)C[C@H](NC(=O)[C@H](CCC(=O)O)NC(=O)[C@H](CC(C)C)NC(=O)[C@H](CC(=O)O)NC(=O)[C@H](CC(N)=O)NC(=O)[C@H](CC(=O)O)NC(=O)[C@H](CCC(=O)O)NC(=O)[C@H](CC(=O)O)NC(=S)Nc1ccc2c(c1)C(=O)OC21c2ccc(O)cc2Oc2cc(O)ccc21)C(=O)N[C@@H](CCC(=O)O)C(=O)N[C@@H](CC(=O)O)C(=O)N[C@@H](Cc1ccccc1)C(=O)O` [F11EE, ϕ-DE232DNDLE237LEDF-OH] ({FITC}-DEDNDLELEDF-OH), the ΔFPmax was found to be 114 ± 6 mFP (Fn peptides 200 nM, Tris pH 8.0 without salt, single site binding model) and 93 ±13 mFP (Fn peptides 200 nM, Tris pH 8.0 without salt, single site model combined with linear contribution (*)). For the same molecule, the Kd under setting [4] was 150 nM. In addition, the “increase of affinity relative to F11 by phosphomimetic substitutions” value (Tris pH 8.0 without salt) worked out at 20 fold.

On to `CCOC(=O)c1ccccc1-c1c2ccc(=O)cc-2oc2cc(O)ccc12` [Fluorescein ethyl ester 3, fluorescein ethyl ester], for which the Kd under setting [3] is 250000 ± 27000 nM.

As for `Cc1cc(C)n2c1C=C1C=CC(CCC(=O)O)=[N+]1[B-]2(F)F` [4,4′ difluoro BODIPY FL 4, 4,4′ difluoro BODIPY FL], the “FP values compared to fluorescein at the same N-RNA concentrations” value (Tris pH 8 without salt) is on record as “markedly lower”. Besides, under setting [3], the Kd is 870000 ± 140000 nM.
